# Patent US20260109699A1, “AZOLE DERIVATIVES AS SHP2 INHIBITORS” (IRBM S.P.A., priority 2022, published 2026)
# What was measured:
# [1] = test system: phospho-ERK1/2 (Thr202/Tyr204); experiment: Phospho-ERK cellular assay; assay type: cell-based; settings: Homo sapiens; KYSE-520 cells, 2 h at 37° C, TR-FRET; read-out: pERK IC50
# Protocol: ERK phosphorylation was detected using the “Advanced phospho-ERK1/2 (Thr202/Tyr204)” TR-FRET kit (Cisbio, Cat #64AERPEG/H), following the manufacturer reagents and instructions.
# Briefly, 20.000/well KYSE-520 cells (DSMZ ACC 371) were plated in 6 μL RPMI-1640 (Invitrogen) growth medium, into 384 white low-volume high base TC microplates (Greiner). After an overnight incubation, cells were treated with DMSO serial diluted compounds and incubated for 2 h at 37° C. After incubation, 2 μL/well of 4×Lysis Buffer (Cisbio 64KL1FDF), were added and incubated with cells for 30 min on gentle shaking. Finally, lysates were added with 2 μL/well of Eu cryptate (donor) and D2 (acceptor) conjugated antibodies (as provided by the Cisbio kit #64AERPEG/H) diluted 1:100 in Detection Buffer (as provided by the Cisbio kit #64AERPEG/H). Plates were then sealed and incubated at rt in the dark. After an overnight incubation, the TR-FRET signal was detected on a suitable reader (Envision, PerkinElmer).
# The lower the TR-FRET signal the higher the higher the SHP2 inhibition in cells.
# The activity of each compound dilution was calculated as percentage between vehicle DMSO treated cells and no cells, 0% inhibition and 100% inhibition respectively. The percentage activity is fitted against the compound dilutions with a four-parameter logistic regression. The inflection point (i.e. the concentration at which half-maximal inhibition is achieved) is the IC50.
# Legend: “+” indicates IC50 equal or higher than 0.5 μM; “++” indicates IC50 less than 0.5 μM and higher or equal to 0.1 μM; “+++” indicates IC50 less than 0.1 μM.
# [2] = molecular target: T1, SHP-2 enzyme (Met1-Leu525), SHP2wt (Homo sapiens, UniProt Q06124); experiment: SHP2 inhibition enzymatic assay; assay type: biochemical; settings: 0.5 nM SHP-2 activated by 500 nM IRS1 peptide, 75 μM DiFMUP substrate
# T1 construct: synthetized by Origene, Met1-Leu525, cat #TP750155; purchased Origene TP750155
# T1 sequence (Q06124 1-525): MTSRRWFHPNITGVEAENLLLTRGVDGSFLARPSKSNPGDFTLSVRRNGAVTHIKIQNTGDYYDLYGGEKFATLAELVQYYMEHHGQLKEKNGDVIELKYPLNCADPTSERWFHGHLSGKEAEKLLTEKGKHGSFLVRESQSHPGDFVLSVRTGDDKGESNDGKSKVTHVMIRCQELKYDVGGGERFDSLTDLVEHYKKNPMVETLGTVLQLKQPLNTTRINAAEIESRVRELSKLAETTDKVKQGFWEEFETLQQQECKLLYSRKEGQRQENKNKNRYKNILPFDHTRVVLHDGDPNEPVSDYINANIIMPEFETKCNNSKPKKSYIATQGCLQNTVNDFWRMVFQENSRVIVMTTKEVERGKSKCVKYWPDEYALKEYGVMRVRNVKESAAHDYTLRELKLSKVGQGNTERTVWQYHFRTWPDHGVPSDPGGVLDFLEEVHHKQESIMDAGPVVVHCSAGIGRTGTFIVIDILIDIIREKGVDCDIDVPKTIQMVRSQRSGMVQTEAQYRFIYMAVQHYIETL
# Protocol: The assay was performed as described in YP Chen et al, Nature (535) 2016. Assay volume of 20 μL/well was assembled in 384 well black polystyrene low-binding microplates (Greiner), using the following buffer: 60 mM HEPES pH 7.2, 75 mM NaCl, 75 mM KCl, 1 mM EDTA pH 8, 0.05% tween-20, 5 mM DTT. The SHP-2 enzyme (synthetized by Origene, Met1-Leu525, cat #TP750155) was used at a final concentration of 0.5 nM. The enzyme was activated by 500 nM IRS1 peptide (sequence: H2N-LN(pY)IDLDLV(dPEG8)LST(pY)ASINFQK-amide; Wang et al., iScience 25,104009, Apr. 15, 2022, https://doi.org/10.1016/j.isci.2022.104009) and incubated with 75 μM DiFMUP (Sigma) as substrate.
# Briefly, DMSO serially diluted testing compounds were transferred to the bottom of the assay plate. SHP2 was then added together with the IRS1 peptide 30 min post incubation, the DiFMUP substrate was added to the reaction and incubated 30 min at rt. Finally 5 μL of 160 μM bpV (potassium bisperoxo[1,10-phenanthroline]oxovanadate [V], Sigma) were added to stop and quench the reaction. The fluorescence was detected by a microplate reader (Envision, PerkinElmer) according to the DiFMUP excitation and emission wavelength. The lower the fluorescence the higher the SHP2 inhibition.
# The activity of each compound dilution was calculated as percentage of inhibition between vehicle (DMSO, 0% inhibition) and no enzyme (100% inhibition). The percentage inhibition is fitted against the compound dilutions with a four-parameter logistic regression. The inflection point (i.e. the concentration at which half-maximal inhibition is achieved) is the IC50.
# Legend: A indicates IC50 less or equal to 0.05 μM; B indicates IC50 greater than 0.05 μM and lower or equal to 0.3 μM.
IC50 [1] [nM],IC50 [2] [nM],SMILES
> 500,50 to 300,"Cn1c(N2CCC3(CC2)Cn2nccc2[C@H]3N)ccc(-c2cccc(Cl)c2Cl)c1=O [Example 11, (S)-6-(4′-amino-4′H,6′H-spiro[piperidine-4,5′-pyrrolo[1,2-b]pyrazol]-1-yl)-3-(2,3-dichlorophenyl)-1-methylpyridin-2(1H)-one]"
> 500,50 to 300,"Cn1c(N2CCC3(CC2)Cn2nccc2[C@H]3N)ncc(-c2cccc(F)c2F)c1=O [Example 5, (S)-2-(4′-amino-4′H,6′H-spiro[piperidine-4,5′-pyrrolo[1,2-b]pyrazol]-1-yl)-5-(2,3-difluorophenyl)-3-methylpyrimidin-4(3H)-one]"
100 to 500,≤ 50,"N[C@@H]1c2ccnn2CC12CCN(c1cnc(Sc3ccc(Cl)c(Cl)c3)cn1)CC2 [Example 23, (S)-1-(5-((3,4-dichlorophenyl)thio)pyrazin-2-yl)-4′H,6′H-spiro[piperidine-4,5′-pyrrolo[1,2-b]pyrazol]-4′-amine]"
100 to 500,≤ 50,"N[C@@H]1c2ccnn2CC12CCN(c1cnc(Sc3cc(F)c(F)cc3F)cn1)CC2 [Example 77, (S)-1-(5-((2,4,5-trifluorophenyl)thio)pyrazin-2-yl)-4′H,6′H-spiro[piperidine-4,5′-pyrrolo[1,2-b]pyrazol]-4′-amine]"
< 100,≤ 50,"COc1ccc(Sc2cnc(N3CCC4(CC3)Cn3nccc3[C@H]4N)cn2)c(F)c1 [Example 64, (S)-1-(5-((2-fluoro-4-methoxyphenyl)thio)pyrazin-2-yl)-4′H,6′H-spiro[piperidine-4,5′-pyrrolo[1,2-b]pyrazol]-4′-amine]"
< 100,≤ 50,"N[C@@H]1c2ccnn2CC12CCN(c1cnc(Sc3ccc(F)cc3F)cn1)CC2 [Example 32, (S)-1-(5-((2,4-difluorophenyl)thio)pyrazin-2-yl)-4′H,6′H-spiro[piperidine-4,5′-pyrrolo[1,2-b]pyrazol]-4′-amine]"
100 to 500,≤ 50,"N[C@@H]1c2ccnn2CC12CCN(c1nccn3c(-c4cccc(F)c4Cl)ncc13)CC2 [Example 14, (S)-1-(3-(2-chloro-3-fluorophenyl)imidazo[1,5-a]pyrazin-8-yl)-4′H,6′H-spiro[piperidine-4,5′-pyrrolo[1,2-b]pyrazol]-4′-amine]"
< 100,≤ 50,"N[C@@H]1c2ccnn2CC12CCN(c1cnc(Sc3cccc(Cl)c3C(F)(F)F)cn1)CC2 [Example 56, (S)-1-(5-((3-chloro-2-(trifluoromethyl)phenyl)thio)pyrazin-2-yl)-4′H,6′H-spiro[piperidine-4,5′-pyrrolo[1,2-b]pyrazol]-4′-amine]"
< 100,≤ 50,"N[C@@H]1c2ccnn2CC12CCN(c1cnc(Sc3cccc4c3CCC4)cn1)CC2 [Example 46, (S)-1-(5-((2,3-dihydro-1H-inden-4-yl)thio)pyrazin-2-yl)-4′H,6′H-spiro[piperidine-4,5′-pyrrolo[1,2-b]pyrazol]-4′-amine]"
> 500,≤ 50,"Cc1c(Cl)cccc1-c1ncc2c(N3CCC4(CC3)Cn3nccc3[C@H]4N)nccn12 [Example 15, (S)-1-(3-(3-chloro-2-methylphenyl)imidazo[1,5-a]pyrazin-8-yl)-4′H,6′H-spiro[piperidine-4,5′-pyrrolo[1,2-b]pyrazol]-4′-amine]"

# Further lines, the compound ahead of its results:
SMILES,IC50 [1] [nM],IC50 [2] [nM]
"Cc1c(F)cccc1Sc1cnc(N2CCC3(CC2)Cn2nccc2[C@H]3N)cn1 [Example 57, (S)-1-(5-((3-fluoro-2-methylphenyl)thio)pyrazin-2-yl)-4′H,6′H-spiro[piperidine-4,5′-pyrrolo[1,2-b]pyrazol]-4′-amine]",< 100,≤ 50
"N[C@@H]1c2ccnn2CC12CCN(c1cnc(Sc3cccc4ncccc34)cn1)CC2 [Example 61, (S)-1-(5-(quinolin-5-ylthio)pyrazin-2-yl)-4′H,6′H-spiro[piperidine-4,5′-pyrrolo[1,2-b]pyrazol]-4′-amine]",< 100,≤ 50
"Cc1cccc(-c2ncc3c(N4CCC5(CC4)Cn4nccc4[C@H]5N)nccn23)c1F [Example 12, (S)-1-(3-(2-fluoro-3-methylphenyl)imidazo[1,5-a]pyrazin-8-yl)-4′H,6′H-spiro[piperidine-4,5′-pyrrolo[1,2-b]pyrazol]-4′-amine]",100 to 500,≤ 50
"N[C@@H]1c2c(F)ccn2CC12CCN(c1cnc(Sc3cccc(Cl)c3Cl)cn1)CC2 [Example 29, (S)-1-(5-((2,3-dichlorophenyl)thio)pyrazin-2-yl)-7′-fluoro-1′H,3′H-spiro[piperidine-4,2′-pyrrolizin]-1′-amine]",< 100,≤ 50
"N[C@@H]1c2cccn2CC12CCN(c1cnc(Sc3cccc(Cl)c3Cl)cn1)CC2 [Example 28, (S)-1-(5-((2,3-dichlorophenyl)thio)pyrazin-2-yl)-1′H,3′H-spiro[piperidine-4,2′-pyrrolizin]-1′-amine]",< 100,≤ 50
"COc1cccc2c(Sc3cnc(N4CCC5(CC4)Cn4nccc4[C@H]5N)cn3)ccnc12 [Example 37, (S)-1-(5-((8-methoxyquinolin-4-yl)thio)pyrazin-2-yl)-4′H,6′H-spiro[piperidine-4,5′-pyrrolo[1,2-b]pyrazol]-4′-amine]",< 100,≤ 50
"N[C@@H]1c2ccnn2CC12CCN(c1cnc(Sc3ccccc3Cl)cn1)CC2 [Example 63, (S)-1-(5-((2-chlorophenyl)thio)pyrazin-2-yl)-4′H,6′H-spiro[piperidine-4,5′-pyrrolo[1,2-b]pyrazol]-4′-amine]",< 100,≤ 50
"N[C@@H]1c2ccnn2CC12CCN(c1cnc(Sc3cccc(F)c3)cn1)CC2 [Example 51, (S)-1-(5-((3-fluorophenyl)thio)pyrazin-2-yl)-4′H,6′H-spiro[piperidine-4,5′-pyrrolo[1,2-b]pyrazol]-4′-amine]",100 to 500,≤ 50
"Cc1nc(N2CCC3(CC2)Cn2nccc2[C@H]3N)cnc1Sc1cccc(Cl)c1Cl [Example 6, (S)-1-(5-((2,3-dichlorophenyl)thio)-6-methylpyrazin-2-yl)-4′H,6′H-spiro[piperidine-4,5′-pyrrolo[1,2-b]pyrazol]-4′-amine]",100 to 500,≤ 50
"N[C@@H]1c2ccnn2CC12CCN(c1cnc(Sc3c(F)cccc3F)cn1)CC2 [Example 75, (S)-1-(5-((2,6-difluorophenyl)thio)pyrazin-2-yl)-4′H,6′H-spiro[piperidine-4,5′-pyrrolo[1,2-b]pyrazol]-4′-amine]",< 100,≤ 50
